The source of these data is ChEMBL document CHEMBL4402557, “Nidufexor (LMB763), a Novel FXR Modulator for the Treatment of Nonalcoholic Steatohepatitis” (J Med Chem, 2020).

The nature of series [1]: Cmax in Wistar rat at 3 mg/kg, po. It counts as ADME, organism-based. The arrangement: dose 3 mg/kg, route oral. Particulars: in vivo.
Series [2] can be described thus: Half life in Wistar rat at 300 mg/kg, po. It counts as ADME, organism-based. Conditions: in vivo.
Series [3] can be described thus: Ratio of AUC in Brain to plasma in Wistar rat […] at 10 mg/kg, po. It counts as ADME, organism-based. Conditions: read-out: Ratio AUC.
For another series, the target named is T1, Androgen receptor (Homo sapiens, UniProt P10275).
T1 sequence (P10275 whole entry): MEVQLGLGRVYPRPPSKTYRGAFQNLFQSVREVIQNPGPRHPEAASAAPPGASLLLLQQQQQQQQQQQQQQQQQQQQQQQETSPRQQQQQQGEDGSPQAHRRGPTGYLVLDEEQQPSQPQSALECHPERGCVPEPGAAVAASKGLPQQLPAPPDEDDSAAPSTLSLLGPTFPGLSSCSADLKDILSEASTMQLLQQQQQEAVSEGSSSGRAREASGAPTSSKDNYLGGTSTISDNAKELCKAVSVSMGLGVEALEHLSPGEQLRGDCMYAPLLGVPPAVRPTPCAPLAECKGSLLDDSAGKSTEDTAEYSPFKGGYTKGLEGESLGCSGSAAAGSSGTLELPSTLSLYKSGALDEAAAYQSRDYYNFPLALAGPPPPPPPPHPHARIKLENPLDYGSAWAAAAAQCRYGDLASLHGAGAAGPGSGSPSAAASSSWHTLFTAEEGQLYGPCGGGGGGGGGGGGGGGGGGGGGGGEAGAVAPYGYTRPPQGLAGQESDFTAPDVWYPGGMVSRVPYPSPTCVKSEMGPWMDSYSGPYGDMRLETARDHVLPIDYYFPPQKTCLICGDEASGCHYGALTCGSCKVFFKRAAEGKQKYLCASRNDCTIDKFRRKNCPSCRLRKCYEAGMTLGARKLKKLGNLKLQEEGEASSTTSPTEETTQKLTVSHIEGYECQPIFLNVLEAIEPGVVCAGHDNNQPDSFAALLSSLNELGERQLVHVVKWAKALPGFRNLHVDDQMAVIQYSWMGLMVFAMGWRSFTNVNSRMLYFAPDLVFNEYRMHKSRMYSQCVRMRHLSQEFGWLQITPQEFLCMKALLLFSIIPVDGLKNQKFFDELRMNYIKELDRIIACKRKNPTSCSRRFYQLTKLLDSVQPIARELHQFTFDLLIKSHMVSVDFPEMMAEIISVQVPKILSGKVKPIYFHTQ
Nature of the series: Agonist activity at androgen receptor (unknown origin) incubated for 2 hrs by TR-FRET assay.

For series [4], the target named is T2, Glucocorticoid receptor (Homo sapiens, UniProt P04150).
T2 sequence (P04150 whole entry): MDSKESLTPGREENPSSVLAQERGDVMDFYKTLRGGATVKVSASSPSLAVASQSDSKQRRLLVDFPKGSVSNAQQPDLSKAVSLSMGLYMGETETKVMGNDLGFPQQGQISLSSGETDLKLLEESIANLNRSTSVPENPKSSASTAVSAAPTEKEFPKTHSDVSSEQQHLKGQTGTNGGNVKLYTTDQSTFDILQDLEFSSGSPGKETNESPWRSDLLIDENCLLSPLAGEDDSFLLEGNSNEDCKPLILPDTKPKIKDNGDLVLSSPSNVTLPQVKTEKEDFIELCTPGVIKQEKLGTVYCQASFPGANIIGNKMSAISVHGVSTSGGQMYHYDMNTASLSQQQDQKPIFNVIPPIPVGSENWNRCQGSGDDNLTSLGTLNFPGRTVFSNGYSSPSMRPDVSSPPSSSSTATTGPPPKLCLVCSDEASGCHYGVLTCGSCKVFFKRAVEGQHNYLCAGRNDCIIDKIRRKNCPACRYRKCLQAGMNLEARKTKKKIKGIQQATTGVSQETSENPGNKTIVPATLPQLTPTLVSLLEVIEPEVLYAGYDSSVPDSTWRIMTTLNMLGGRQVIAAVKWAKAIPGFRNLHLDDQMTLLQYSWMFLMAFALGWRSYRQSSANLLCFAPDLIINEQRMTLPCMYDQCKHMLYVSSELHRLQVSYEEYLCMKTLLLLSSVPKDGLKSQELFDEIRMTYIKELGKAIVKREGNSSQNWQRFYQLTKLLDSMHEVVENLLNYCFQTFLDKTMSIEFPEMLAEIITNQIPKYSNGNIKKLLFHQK
Nature of the series: Agonist activity at Glucocorticoid receptor (unknown origin) incubated for 2 hrs by TR-FRET assay. For orientation: TR-FRET usually uses a lanthanide donor and a delayed reading to cut background.

In series [5] the target is T2, Glucocorticoid receptor. Put plainly: Agonist activity at GAL4-fused Glucocorticoid receptor (unknown origin) expressed in HEK293T cells incubated for 24 by BrightGlo reagent based assay. It counts as cell-based.
The test system of series [6] is Rattus norvegicus. Put plainly: In-vivo agonist activity at FXR in orally dosed Han Wistar rat assessed as upregulation of BSEP mRNA level in liver administered via oral gavage once daily for 14 days measured post last dose by qRT-PCR analysis. It counts as functional, organism-based. (In general: Quantitative PCR measures a nucleic acid by following its amplification.)

Series [7] relates to Rattus norvegicus. Put plainly: In-vivo agonist activity at FXR in orally dosed Han Wistar rat assessed as upregulation of FGF15 mRNA level in ileum administered via oral gavage once daily for 14 days measured post last dose by qRT-PCR analysis. It counts as functional, organism-based.
The subject of series [8] is Rattus norvegicus. Put plainly: In-vivo agonist activity at FXR in orally dosed Han Wistar rat assessed as upregulation of SHP mRNA level in liver administered via oral gavage once daily for 14 days measured post last dose by qRT-PCR analysis. It counts as functional, organism-based.
Series [9] relates to Mus musculus. Put plainly: Anti Steato-hepatitic activity in STZ/HFD induced oral dosed C57BL/6J mouse STAM model assessed as reduction in microvesicular fat deposition administered via oral gavage once daily for 3 weeks and measured on 9 week by H and E staining based assay. It counts as functional, organism-based.
Series [10] concerns Mus musculus. Nature of the series: Anti Steato-hepatitic activity in STZ/HFD induced oral dosed C57BL/6J mouse STAM model assessed as reduction in inflammatory cell infiltration administered via oral gavage once daily for 3 weeks and measured on 9 week by H and E staining based assay. It counts as functional, organism-based.
The nature of series [11]: Clearance in mouse at 3 mg/kg, iv. It counts as ADME, organism-based. Particulars: in vivo.
Series [12] in a line: Clearance in rabbit at 5 mg/kg, iv. It counts as ADME, organism-based, Oryctolagus cuniculus. Particulars: in vivo.
Series [13] in a line: Clearance in dog at 0.5 mg/kg, iv. It counts as ADME, organism-based, Canis lupus familiaris. Conditions: in vivo.
Series [14] can be described thus: Volume of distribution at steady state in mouse at 3 mg/kg, iv. It counts as ADME, organism-based. Particulars: in vivo, read-out: Vdss.
A short description of series [15]: Volume of distribution at steady state in dog at 0.5 mg/kg, iv. It counts as ADME, organism-based, Canis lupus familiaris. Conditions: in vivo, read-out: Vdss.
Series [16] can be described thus: Half life in mouse at 3 mg/kg, iv. Particulars: in vivo. It counts as ADME, organism-based.

Usually Cmax stands for the peak of the concentration-time curve. The term half-life denotes how long it takes for the measured level to halve. By EC50 is commonly meant the concentration at which the effect is half-maximal. Broadly, the clearance is a measure of how efficiently the substance is removed, as volume per time. A higher clearance goes with efficient removal. For the compound `Cn1nc(C(=O)N(Cc2ccccc2)Cc2ccc(C(=O)O)cc2)c2c1-c1cc(Cl)ccc1OC2` [NIDUFEXOR], in series [1], the Cmax stood at 4.5 µM. Moreover, the half-life in [2] is 6.3 h; in [16], 4.5 h. The Kp in series [3] turned out to be 0.05. For the same compound, the EC50 is greater than 30 µM at Androgen receptor, greater than 30 µM on Glucocorticoid receptor [4] and greater than 10 µM at Glucocorticoid receptor [5]. In addition, the Activity result with Rattus norvegicus [6], in the series on Rattus norvegicus [7], in the series on Rattus norvegicus [8], in the series with Mus musculus [9] and in the series with Mus musculus [10] was “Dose-dependent effect” each time. Also, the clearance in series [11] is 9.8 mL/min/kg; in [12] it was 5.6 mL/min/kg; in series [13], 3.6 mL/min/kg. For the same compound, the Vd in series [14] worked out at 0.9 L/kg; in series [15] it was 1.1 L/kg.
